Assay results as given in US7531554B2, “4-oxoquinoline compound and use thereof as HIV integrase inhibitor” (Japan Tobacco Inc., priority 2004, dated 2009).

Key:
[1] = target: T1, HIV integrase (Human immunodeficiency virus type 1 group M subtype B, UniProt P12497, F1332H); assay: Determination of enzyme (HIV integrase) inhibitory activity; type: biochemical; details: recombinant integrase protein (F185H), donor DNA/target DNA, absorbance at 450 nm
T1 construct: HIV integrase full length gene (J. Virol., 67, 425-437 (1993)) in which phenylalanine at codon 185 was substituted by histidine; made in house; host or cells: Escherichia coli BL21(DE3)
Outline: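 Full-length HIV integrase bearing F185H mutation, E. coli-expressed and purified, preincubated with compound on plate-bound biotinylated donor DNA for 60 min at 37 °C; digoxigenin-labelled target DNA then added for 10 min. Strand transfer detected by peroxidase anti-digoxigenin ELISA at 450 nm; IC50 from inhibition versus no-compound and no-enzyme controls.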

melting point [°C] | SMILES | IC50 [1] [nM]
247 to 249 | O=C(O)c1cn(CCO)c2ccc(Cc3cccc(Cl)c3Cl)cc2c1=O | –
– | CC(C)[C@@H](CO)n1cc(C(=O)O)c(=O)c2cc(Cc3cccc(Cl)c3F)c(O)cc21 [Example 7-5, 6-(3-chloro-2-fluorobenzyl)-7-hydroxy-1-((1S)-1-(hydroxymethyl)-2-methylpropyl)-4-oxo-1,4-dihydroquinoline-3-carboxylic acid] | 3.2
– | CC(C)(C)[C@@H](CO)n1cc(C(=O)O)c(=O)c2cc(Cc3cccc(Cl)c3F)c(N3CCOCC3)cc21 [Example 7-6, 6-(3-chloro-2-fluorobenzyl)-1-((1S)-2,2-dimethyl-1-(hydroxymethyl)propyl)-7-(morpholin-4-yl)-4-oxo-1,4-dihydroquinoline-3-carboxylic acid] | 4.3
